Measured values from the NIST ThermoML archive (doi:10.1016/j.fluid.2017.10.027).

Details: Liquid; for mass density: Vibrating tube method; for speed of sound: Sing-around technique in a fixed-path interferometer

CCOCCO [2-ethoxyethan-1-ol]
Details	mass density, 100 kPa [kg/m3]	mass density, 101.33 kPa [kg/m3]	mass density, 2500 kPa [kg/m3]	mass density, 5000 kPa [kg/m3]	mass density, 10000 kPa [kg/m3]	mass density, 15000 kPa [kg/m3]	mass density, 20000 kPa [kg/m3]	mass density, 25000 kPa [kg/m3]	mass density, 30000 kPa [kg/m3]	speed of sound, 101.33 kPa [m/s]
293.15 K	931	–	933	934	938	941	944	947	950	–
298.15 K	–	925.64	–	–	–	–	–	–	–	1305.7
303.15 K	922	–	924	925	929	932	936	939	942	–
313.15 K	913	–	914	916	920	924	927	930	933	–
323.15 K	903	–	905	907	911	915	918	922	925	–
333.15 K	894	–	896	898	902	906	910	913	917	–
343.15 K	884	–	886	889	893	897	901	905	908	–
353.15 K	874	–	877	879	884	888	892	896	900	–
363.15 K	864	–	867	869	874	879	883	887	891	–
373.15 K	854	–	857	859	865	869	874	878	882	–
383.15 K	843	–	846	849	855	860	865	869	874	–
393.15 K	832	–	836	839	845	850	855	860	865	–

CCCOCCO [2-propoxyethanol]
Details	mass density, 100 kPa [kg/m3]	mass density, 101.33 kPa [kg/m3]	mass density, 2500 kPa [kg/m3]	mass density, 5000 kPa [kg/m3]	mass density, 10000 kPa [kg/m3]	mass density, 15000 kPa [kg/m3]	mass density, 20000 kPa [kg/m3]	mass density, 25000 kPa [kg/m3]	mass density, 30000 kPa [kg/m3]	speed of sound, 101.33 kPa [m/s]
293.15 K	911	–	913	915	918	922	925	928	931	–
298.15 K	–	907.23	–	–	–	–	–	–	–	1298.8
303.15 K	903	–	904	906	910	913	917	920	923	–
313.15 K	894	–	896	898	901	905	908	912	915	–
323.15 K	885	–	887	889	893	897	900	904	907	–
333.15 K	876	–	878	880	884	888	892	895	899	–
343.15 K	867	–	869	871	875	879	883	887	891	–
353.15 K	857	–	860	862	866	871	875	879	882	–
363.15 K	848	–	850	853	857	862	866	870	874	–
373.15 K	838	–	840	843	848	853	858	862	866	–
383.15 K	828	–	830	833	839	844	849	853	858	–
393.15 K	817	–	820	823	829	835	840	845	849	–
403.15 K	806	–	810	813	819	825	831	836	841	–
413.15 K	795	–	799	803	810	816	822	827	832	–
